Among the test systems are A549 NSCLC; COLO 205 colon; EKVX NSCLC; HCC-2998 colon; HCT-116 colon; K-562 leukemia; M14 melanoma; MDA-MB-435; NCI-H23 lung; NCI-H460 lung; NCI/ADR-RES ovarian; OVCAR-4 ovarian; OVCAR-5 ovarian; PC-3 prostate; SF-295 CNS; SF-539 CNS; SN12C renal; SNB-75 CNS; UACC-62 melanoma; UO-31 renal.
Experiment in all cases: DTP human tumour cell line panel, 48 h

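Cultured in 96-well plates, cells were exposed to test compound for 48 hours across five concentrations. Definition used: TGI = concentration required for complete inhibition of growth.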 Bounds are passed on as bounds.

The term TGI denotes the concentration giving total growth inhibition. The low end stands for more potent growth arrest, the high end for less potent growth arrest. With `CCOC(=O)/C=C(\C(=O)OCC)n1ccc(=O)n(Cc2cn(CCCCOC(C)=O)nn2)c1=O`, the TGI with A549 NSCLC is 45.9 µM; with COLO 205 colon, over 36.2 µM; in the experiment on EKVX NSCLC, 31.4 µM; in the experiment on HCC-2998 colon, 41 µM; in the experiment on HCT-116 colon it was over 47.4 µM; in the experiment on K-562 leukemia it was over 34.1 µM. Further, the TGI in the experiment with M14 melanoma was found to be 54.8 µM; in the experiment with MDA-MB-435, 18.1 µM; with NCI-H23 lung, 32.3 µM; in the experiment with NCI-H460 lung, 57.7 µM; in the experiment on NCI/ADR-RES ovarian it was 53.3 µM; in the experiment on OVCAR-4 ovarian it was 48.2 µM. Further, the TGI is 31.4 µM in the experiment with OVCAR-5 ovarian; 36.9 µM in the experiment with PC-3 prostate; over 62.1 µM in the experiment with SF-295 CNS; 5.65 µM in the experiment with SF-539 CNS; 43 µM with SN12C renal; 41.8 µM in the experiment on SNB-75 CNS. The TGI with UACC-62 melanoma came out at 33.2 µM; in the experiment on UO-31 renal, 28.6 µM.

Take `CC1OC(OC2C(OC(=O)[C@]34CCC(C)(C)C[C@H]3C3=CC[C@@H]5[C@@]6(C)CC[C@H](OC7OC(CO)C(O)C(O)C7OC7OC(CO)C(O)C(O)C7O)C(C)(C)[C@@H]6CC[C@@]5(C)[C@]3(C)CC4)OCC(O)C2O)C(O)C(OC2OCC(O)C(O)C2O)C1OC1OCC(O)C(OC2OCC(O)C(O)C2O)C1O` (stereo not given in full): the TGI was 15 µM in the experiment with A549 NSCLC; 8.16 µM in the experiment with COLO 205 colon; 17.1 µM in the experiment on EKVX NSCLC; 4.38 µM in the experiment with HCC-2998 colon; over 100 µM in the experiment on HCT-116 colon; 23.2 µM in the experiment on K-562 leukemia. For the same compound, the TGI in the experiment with M14 melanoma is 6.3 µM; with MDA-MB-435, 5.6 µM; in the experiment with NCI-H23 lung it was 25.1 µM; with NCI-H460 lung, over 100 µM; in the experiment with NCI/ADR-RES ovarian, over 100 µM; with OVCAR-4 ovarian, over 61.6 µM. Moreover, the TGI in the experiment with OVCAR-5 ovarian was 23.5 µM; with PC-3 prostate it was 25.9 µM; with SF-295 CNS, 21.4 µM; with SF-539 CNS, over 100 µM; with SN12C renal, 5.56 µM; in the experiment with SNB-75 CNS, 40.8 µM. Moreover, the figures for the concentration for total growth inhibition (TGI) with UACC-62 melanoma and in the experiment with UO-31 renal were 30.2 µM and 4.98 µM, respectively.

As for `c1ccc2c(c1)SCCC2NC1=NCCO1` (stereo not given), the TGI with A549 NSCLC, in the experiment on COLO 205 colon, in the experiment on EKVX NSCLC, in the experiment with HCC-2998 colon, in the experiment on HCT-116 colon and in the experiment on K-562 leukemia was over 100 µM each time. In addition, the TGI in the experiment with M14 melanoma, in the experiment with MDA-MB-435, with NCI-H23 lung, in the experiment on NCI-H460 lung, with NCI/ADR-RES ovarian and with OVCAR-4 ovarian was over 100 µM each time. For the same compound, the TGI in the experiment on OVCAR-5 ovarian, in the experiment on PC-3 prostate, in the experiment with SF-295 CNS, in the experiment on SF-539 CNS, with SN12C renal and in the experiment with SNB-75 CNS was over 100 µM throughout. Further, the TGI in the experiment on UACC-62 melanoma and in the experiment with UO-31 renal was over 100 µM in each case.

Regarding `CCOC(=O)c1nc2cc(F)c(N3CCOCC3)cc2[nH]c1=O`, the concentration for total growth inhibition (TGI) in the experiment with A549 NSCLC, in the experiment with COLO 205 colon, in the experiment with EKVX NSCLC, in the experiment with HCC-2998 colon, with HCT-116 colon and in the experiment on K-562 leukemia was over 100 µM throughout. For the same compound, the TGI with M14 melanoma, in the experiment on MDA-MB-435, in the experiment with NCI-H23 lung, in the experiment with NCI-H460 lung, in the experiment on NCI/ADR-RES ovarian and with OVCAR-4 ovarian was over 100 µM each time. Moreover, the TGI in the experiment with OVCAR-5 ovarian, in the experiment with PC-3 prostate, in the experiment with SF-295 CNS, in the experiment on SF-539 CNS, in the experiment on SN12C renal and in the experiment on SNB-75 CNS was over 100 µM throughout. The TGI in the experiment with UACC-62 melanoma and in the experiment with UO-31 renal was over 100 µM each time.

`O=c1nc(N2CCNCC2)oc2cc(Cl)oc(=O)c12`: the TGI in the experiment on A549 NSCLC is 20.2 µM; in the experiment with COLO 205 colon it was 19 µM; with EKVX NSCLC, 19.4 µM; with HCC-2998 colon, 25.1 µM; with HCT-116 colon it was 7.53 µM; in the experiment on K-562 leukemia it was over 27.4 µM. In addition, the TGI came to 7.94 µM in the experiment on M14 melanoma; 18.5 µM in the experiment with MDA-MB-435; 27 µM with NCI-H23 lung; 22.4 µM in the experiment on NCI-H460 lung; 25.8 µM in the experiment with NCI/ADR-RES ovarian; 21.6 µM with OVCAR-4 ovarian. In addition, the TGI in the experiment with OVCAR-5 ovarian came to 30 µM; in the experiment with PC-3 prostate, 19.9 µM; in the experiment with SF-295 CNS it was 20.9 µM; in the experiment with SF-539 CNS, 11.8 µM; in the experiment on SN12C renal it was 33.1 µM; in the experiment with SNB-75 CNS it was 17.4 µM. In addition, the TGI was 25.2 µM in the experiment on UACC-62 melanoma and 23 µM in the experiment on UO-31 renal.

As for `CC(Oc1ccc(Cl)cc1Cl)C(=O)NN1C(=O)CSC1c1ccccc1` (stereo not given), the total growth inhibition concentration (TGI) with A549 NSCLC, in the experiment with COLO 205 colon, in the experiment with EKVX NSCLC, in the experiment with HCC-2998 colon, with HCT-116 colon and in the experiment on K-562 leukemia was over 100 µM throughout. Also, the TGI in the experiment on M14 melanoma, in the experiment with MDA-MB-435, in the experiment on NCI-H23 lung, in the experiment with NCI-H460 lung, in the experiment with NCI/ADR-RES ovarian and in the experiment on OVCAR-4 ovarian was over 100 µM throughout. In addition, the TGI in the experiment with OVCAR-5 ovarian, in the experiment on PC-3 prostate, in the experiment on SF-295 CNS, in the experiment on SF-539 CNS, in the experiment with SN12C renal and in the experiment with SNB-75 CNS was over 100 µM throughout. Moreover, the TGI in the experiment with UACC-62 melanoma and with UO-31 renal was over 100 µM throughout.

`CC1=C(/C=C/C(C)=C/C=C/C(C)=C/C(=O)OC2CC(n3cc(F)c(=O)[nH]c3=O)OC2CO)C(C)(C)CCC1` (stereo not given): the TGI is 17.6 µM with A549 NSCLC; 25.8 µM in the experiment on COLO 205 colon; 32.9 µM in the experiment on EKVX NSCLC; 26.8 µM with HCC-2998 colon; 14.4 µM in the experiment with HCT-116 colon; 14 µM with K-562 leukemia. Moreover, the TGI with M14 melanoma was 17.4 µM; with MDA-MB-435, 25.2 µM; in the experiment with NCI-H23 lung, 20.7 µM; in the experiment with NCI-H460 lung, 15.3 µM; with NCI/ADR-RES ovarian, 24.9 µM; in the experiment with OVCAR-4 ovarian, 21.5 µM. In addition, the TGI in the experiment with OVCAR-5 ovarian is 36.8 µM; with PC-3 prostate, 20.8 µM; in the experiment with SF-295 CNS, 14.3 µM; in the experiment with SF-539 CNS, 0.54 µM; in the experiment with SN12C renal, 32 µM; with SNB-75 CNS, 18.6 µM. Also, the figures for the TGI in the experiment on UACC-62 melanoma and in the experiment with UO-31 renal were 4.96 µM and 14.9 µM, respectively.

As to `O=C1c2ccccc2C(=O)c2c1nc1ccccc1c2-c1cncc(-c2c3c(nc4ccccc24)C(=O)c2ccccc2C3=O)c1`, the TGI in the experiment on A549 NSCLC is 22.3 µM; with COLO 205 colon, 19.8 µM; in the experiment on EKVX NSCLC, over 100 µM; with HCC-2998 colon it was 49.7 µM; in the experiment on HCT-116 colon, 24.7 µM; with K-562 leukemia, over 100 µM. The TGI in the experiment on M14 melanoma is 32.4 µM; in the experiment with MDA-MB-435, 3.96 µM; with NCI-H23 lung, 2.62 µM; with NCI-H460 lung it was 10 µM; with NCI/ADR-RES ovarian, 51 µM; with OVCAR-4 ovarian, over 100 µM. Further, the total growth inhibition concentration (TGI) in the experiment with OVCAR-5 ovarian was over 100 µM; with PC-3 prostate, over 100 µM; in the experiment on SF-295 CNS, 22.8 µM; with SF-539 CNS, 60.5 µM; in the experiment on SN12C renal, 27.9 µM; in the experiment with SNB-75 CNS it was 21.1 µM. Further, the TGI in the experiment with UACC-62 melanoma was 19.9 µM; with UO-31 renal, 31.8 µM.

On to `CC(=O)OCC1OC(OC2CC3C(C)(C)C(O)CC[C@]3(C)C3CCC45CC4(CCC5[C@@H](C)CC(O)C(O)C(C)(C)O)[C@]23C)C(O)C(O)C1O` (stereo not given in full), for which the TGI in the experiment on A549 NSCLC, with COLO 205 colon, with EKVX NSCLC, with HCC-2998 colon, with HCT-116 colon and in the experiment with K-562 leukemia was over 10 µM throughout. Moreover, the TGI with M14 melanoma, with MDA-MB-435, in the experiment on NCI-H23 lung, with NCI-H460 lung, in the experiment on NCI/ADR-RES ovarian and in the experiment on OVCAR-4 ovarian was over 10 µM each time. Besides, the TGI with OVCAR-5 ovarian, with PC-3 prostate, in the experiment on SF-295 CNS, in the experiment with SF-539 CNS, with SN12C renal and with SNB-75 CNS was over 10 µM throughout. Also, the TGI in the experiment on UACC-62 melanoma and in the experiment on UO-31 renal was over 10 µM each time.

The values are drawn from PubChem BioAssay (NCI).
